One assay deals with T1, KRASG12D (Homo sapiens, UniProt P01116, G12D).
T1 construct: made in house; host or cells: E. coli BL21 (DE3)
The assay is described as follows: Bio-Biochem-PPI-HTRF Ras-SOS1 interaction assay (KRAS G12D). The format is biochemical. To be noted: 5 nM. Here is the method: (§1) The assay buffer can contain −5 mM HEPES pH 7.4, ˜150 mM NaCl, ˜ 1 mM DTT, 0.05% BSA and 0.0025% (v/v) Igepal. A Ras working solution is prepared in an assay buffer containing typically a suitable amount of the protein construct (e.g., GST-tagged K-Ras mutant) and the FRET donor (e.g., antiGST-Eu(K) from Cisbio, France). A SOS1 working solution is prepared in an assay buffer containing suitable amount of the protein construct (e.g., His-hSOS1) and the FRET acceptor (e.g., anti-6His-XL665 from Cisbio, France). A suitable amount of the protein construct will depend on the range of activity or range of IC50 values being detected or under investigation. For detecting IC50 within a range of 500 nM, the protein constructs of the same range of molarity can be utilized. […] A fixed volume of DMSO with or without test compound is transferred into a 384-well plate. Ras working solution is added to all wells of the test plate. SOS1 working solution is added to all wells except for those that are subsequently filled the inhibitor control solution. Upon incubation for about 10 minutes or longer, the fluorescence is measured with a M1000Pro plate reader (Tecan) using HTRF detection (excitation 337 nm, emission 1:620 nm, emission 2: 665 nm). Compounds are tested in duplicates at different concentrations (for example, 10 μM, 2.5 μM, 0.63 μM, 0.16 μM, 0.04 μM, 0.01 μM test compound). The ratiometric data (i.e., emission 2 divided by emission 1) is used to calculate IC50 values against Ras using GraphPad Prism (GraphPad software). Following this general procedure, samples were tested with or without a subject compound disclosed herein including compounds exemplified in Table 1 to assess their abilities to inhibit a mutant K-Ras relative to another mutant K-Ras or wildtype K-Ras. Signaling output measured in terms of IC50 values can be obtained, a ratio of IC50 against one mutant relative to another mutant can be calculated. For instance, a selective reduction of K-Ras G12D signaling output can be evidenced by a ratio greater than one. In particular, a selective reduction of K-Ras G12D signaling relative to K-Ras WT signaling is evidenced as the ratio of IC50 (against K-Ras WT) to IC50 (against K-Ras G12D) is greater than 1.

A further assay addresses T2, KRASwt (Homo sapiens, UniProt P01116).
T2 construct: made in house; host or cells: E. coli BL21 (DE3)
The assay is described as follows: Bio-Biochem-PPI-HTRF Ras-SOS1 interaction assay (KRAS wt). It counts as biochemical. Conditions: 5 nM. Here is the method:
as §1
A general note: In TR-FRET formats the signal depends on donor and acceptor labels being close together.

Usually IC50 stands for the concentration that inhibits the measured activity by half.

Bounds are passed on as bounds.

T2 sequence (P01116 1-188 isoform P01116-2): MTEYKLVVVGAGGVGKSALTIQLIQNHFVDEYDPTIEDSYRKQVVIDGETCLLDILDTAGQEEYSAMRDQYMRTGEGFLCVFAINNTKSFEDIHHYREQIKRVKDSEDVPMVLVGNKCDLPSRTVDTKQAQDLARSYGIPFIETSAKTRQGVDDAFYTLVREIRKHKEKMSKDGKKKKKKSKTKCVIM
T1 sequence (P01116 1-188 isoform P01116-2 G12D): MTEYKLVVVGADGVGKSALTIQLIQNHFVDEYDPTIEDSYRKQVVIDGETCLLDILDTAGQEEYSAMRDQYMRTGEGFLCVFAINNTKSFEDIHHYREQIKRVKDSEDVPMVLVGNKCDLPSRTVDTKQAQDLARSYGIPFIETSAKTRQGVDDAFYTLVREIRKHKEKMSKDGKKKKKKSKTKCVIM

As to `C[C@H](Oc1nc(N2CCCC3(CN(C(=O)C4CC4(F)F)C3)C2)c2cc(Cl)c(-c3ccc(F)c4sc(N)c(C#N)c34)c(F)c2n1)[C@@H]1CCCN1C` (stereo partly drawn) [compound 148, 2-amino-4-(6-chloro-4-(2-(2,2-difluorocyclopropane-1-carbonyl)-2,6-diazaspiro[3.5]nonan-6-yl)-8-fluoro-2-((S)-1-((S)-1-methylpyrrolidin-2-yl)ethoxy)quinazolin-7-yl)-7-fluorobenzo[b]thiophene-3-carbonitrile], the IC50 against KRASG12D and against KRASwt was under 5 µM in each case.

`N#Cc1c(N)sc2c(F)ccc(-c3c(Cl)cc4c(N5CCCCC6(CN(C(=O)CN7CCOCC7=O)C6)C5)nc(OC[C@@]56CCCN5C[C@H](F)C6)nc4c3F)c12` [compound 326, 2-amino-4-(6-chloro-8-fluoro-2-(((2R,7aS)-2-fluorotetrahydro-1H-pyrrolizin-7a(5H)-yl)methoxy)-4-(2-(2-(3-oxomorpholino)acetyl)-2,6-diazaspiro[3.6]decan-6-yl)quinazolin-7-yl)-7-fluorobenzo[b]thiophene-3-carbonitrile]: the half-maximal inhibitory concentration (IC50) against KRASG12D and on KRASwt was under 5 µM in each case.

In the case of `N#Cc1c(N)sc2c(F)ccc(-c3c(Cl)cc4c(N5CCCCC6(CN(C(=O)C7CCC7C#N)C6)C5)nc(OC[C@@]56CCCN5C[C@H](F)C6)nc4c3F)c12` (stereo partly drawn) [compound 345, 2-amino-4-(6-chloro-4-(2-(2-cyanocyclobutane-1-carbonyl)-2,6-diazaspiro[3.6]decan-6-yl)-8-fluoro-2-(((2R,7aS)-2-fluorotetrahydro-1H-pyrrolizin-7a(5H)-yl)methoxy)quinazolin-7-yl)-7-fluorobenzo[b]thiophene-3-carbonitrile], the IC50 on KRASG12D and against KRASwt was under 5 µM each time.

On to `N#Cc1c(N)sc2c(F)ccc(-c3c(F)c4nc(OC[C@@]56CCCN5C[C@H](F)C6)nc(N5CCCCC6(CN(C(=O)C(F)F)C6)C5)c4c(=O)n3C3CC3)c12` [compound 233, 2-amino-4-(6-cyclopropyl-4-(2-(2,2-difluoroacetyl)-2,6-diazaspiro [3.6]decan-6-yl)-8-fluoro-2-(((2R,7aS)-2-fluorotetrahydro-1H-pyrrolizin-7a(5H)-yl)methoxy)-5-oxo-5,6-dihydropyrido[4,3-d]pyrimidin-7-yl)-7-fluorobenzo[b]thiophene-3-carbonitrile], for which the IC50 at KRASG12D and against KRASwt was under 5 µM each time.

With `N#Cc1c(N)sc2c(F)ccc(-c3c(Cl)cc4c(N5CCCCC6(CN(C(=O)CC78CC(F)(C7)C8)C6)C5)nc(OC[C@@]56CCCN5C[C@H](F)C6)nc4c3F)c12` [compound 282, 2-amino-4-(6-chloro-8-fluoro-4-(2-(2-(3-fluorobicyclo[1.1.1]pentan-1-yl)acetyl)-2,6-diazaspiro[3.6]decan-6-yl)-2-(((2R,7aS)-2-fluorotetrahydro-1H-pyrrolizin-7a(5H)-yl)methoxy)quinazolin-7-yl)-7-fluorobenzo[b]thiophene-3-carbonitrile], the 50% inhibitory concentration (IC50) at KRASG12D and against KRASwt was under 5 µM in each case.

In the case of `N#Cc1c(N)sc2c(F)ccc(-c3c(Cl)cc4c(N5CCCCC6(CN(C(=O)/C=C/C(F)(F)F)C6)C5)nc(OC[C@@]56CCCN5C[C@H](F)C6)nc4c3F)c12` [compound 207, 2-amino-4-(6-chloro-8-fluoro-2-(((2R,7aS)-2-fluorotetrahydro-1H-pyrrolizin-7a(5H)-yl)methoxy)-4-(2-((E)-4,4,4-trifluorobut-2-enoyl)-2,6-diazaspiro [3.6]decan-6-yl)quinazolin-7-yl)-7-fluorobenzo[b]thiophene-3-carbonitrile], the IC50 against KRASG12D and against KRASwt was under 5 µM each time.

For the molecule `N#Cc1c(N)sc2c(F)ccc(-c3c(Cl)cc4c(N5CCCCC6(CN(C(=O)C7CC7(F)Cl)C6)C5)nc(OC[C@@]56CCCN5C[C@H](F)C6)nc4c3F)c12` (stereo partly drawn) [compound 336, 2-amino-4-(6-chloro-4-(2-(2-chloro-2-fluorocyclopropane-1-carbonyl)-2,6-diazaspiro[3.6]decan-6-yl)-8-fluoro-2-(((2R,7aS)-2-fluorotetrahydro-1H-pyrrolizin-7a(5H)-yl)methoxy)quinazolin-7-yl)-7-fluorobenzo[b]thiophene-3-carbonitrile], the concentration for half-maximal inhibition (IC50) at KRASG12D and at KRASwt was under 5 µM each time.

In the case of `CC(O)(C(=O)N1CC2(CCCCN(c3nc(OC[C@@]45CCCN4C[C@H](F)C5)nc4c(F)c(-c5ccc(F)c6sc(N)c(C#N)c56)c(Cl)cc34)C2)C1)C1CC1` (stereo partly drawn) [compound 329, 2-amino-4-(6-chloro-4-(2-(2-cyclopropyl-2-hydroxypropanoyl)-2,6-diazaspiro[3.6]decan-6-yl)-8-fluoro-2-(((2R,7aS)-2-fluorotetrahydro-1H-pyrrolizin-7a(5H)-yl)methoxy)quinazolin-7-yl)-7-fluorobenzo[b]thiophene-3-carbonitrile], the IC50 against KRASG12D and against KRASwt was under 5 µM throughout.

Consider `N#Cc1c(N)sc2c(F)ccc(-c3c(Cl)cc4c(N5CCCCC6(CN(C(=O)[C@]78COC[C@H]7C8(F)F)C6)C5)nc(OC[C@@]56CCCN5C[C@H](F)C6)nc4c3F)c12` [compound 240, 2-amino-4-(6-chloro-4-(2-((1R,5S)-6,6-difluoro-3-oxabicyclo[3.1.0]hexane-1-carbonyl)-2,6-diazaspiro[3.6]decan-6-yl)-8-fluoro-2-(((2R,7aS)-2-fluorotetrahydro-1H-pyrrolizin-7a(5H)-yl)methoxy)quinazolin-7-yl)-7-fluorobenzo[b]thiophene-3-carbonitrile], for which the IC50 at KRASG12D and against KRASwt was under 5 µM in each case.

On to `N#Cc1c(N)sc2c(F)ccc(-c3c(Cl)cc4c(N5CCCCC6(CN(C(=O)C(F)Cl)C6)C5)nc(OC[C@@]56CCCN5C[C@H](F)C6)nc4c3F)c12` (stereo partly drawn) [compound 251, 2-amino-4-(6-chloro-4-(2-(2-chloro-2-fluoroacetyl)-2,6-diazaspiro [3.6]decan-6-yl)-8-fluoro-2-(((2R,7aS)-2-fluorotetrahydro-1H-pyrrolizin-7a(5H)-yl)methoxy)quinazolin-7-yl)-7-fluorobenzo[b]thiophene-3-carbonitrile], for which the half-maximal inhibitory concentration (IC50) at KRASG12D and against KRASwt was under 5 µM in each case.

Consider `N#Cc1c(N)sc2c(F)ccc(-c3c(Cl)cc4c(N5CCCCC6(CN(C(=O)[C@H]7C[C@@H]7F)C6)C5)nc(OC[C@@]56CCCN5C[C@H](F)C6)nc4c3F)c12` [compound 284, 2-amino-4-(6-chloro-8-fluoro-4-(2-((1R,2S)-2-fluorocyclopropane-1-carbonyl)-2,6-diazaspiro[3.6]decan-6-yl)-2-(((2R,7aS)-2-fluorotetrahydro-1H-pyrrolizin-7a(5H)-yl)methoxy)quinazolin-7-yl)-7-fluorobenzo[b]thiophene-3-carbonitrile], for which the IC50 against KRASG12D and at KRASwt was under 5 µM throughout.

As to `N#Cc1c(N)sc2c(F)ccc(-c3c(Cl)cc4c(N5CCCCC6(CN(C(=O)C7CCC7F)C6)C5)nc(OC[C@@]56CCCN5C[C@H](F)C6)nc4c3F)c12` (stereo partly drawn) [compound 160, 2-amino-4-(6-chloro-8-fluoro-4-(2-(2-fluorocyclobutane-1-carbonyl)-2,6-diazaspiro[3.6]decan-6-yl)-2-(((2R,7aS)-2-fluorotetrahydro-1H-pyrrolizin-7a(5H)-yl)methoxy)quinazolin-7-yl)-7-fluorobenzo[b]thiophene-3-carbonitrile], the IC50 at KRASG12D and against KRASwt was under 5 µM throughout.

Consider `CC(C)=C(C#N)C(=O)N1CC2(C1)CN(c1nc(OC[C@@]34CCCN3C[C@H](F)C4)nc3c(F)c(-c4ccc(F)c5sc(N)c(C#N)c45)c(Cl)cc13)CCO2` [compound 245, 2-amino-4-(6-chloro-4-(2-(2-cyano-3-methylbut-2-enoyl)-5-oxa-2,8-diazaspiro[3.5]nonan-8-yl)-8-fluoro-2-(((2R,7aS)-2-fluorotetrahydro-1H-pyrrolizin-7a(5H)-yl)methoxy)quinazolin-7-yl)-7-fluorobenzo[b]thiophene-3-carbonitrile], for which the IC50 on KRASG12D and on KRASwt was under 5 µM in each case.

Regarding `C#Cc1c(F)ccc2cc(O)cc(-c3ncc4c(N5CCCCC6(CN(C(=O)[C@H]7CC7(F)F)C6)C5)nc(OC[C@@]56CCCN5C[C@H](F)C6)nc4c3F)c12` [compound 215, ((R)-2,2-difluorocyclopropyl) (6-(7-(8-ethynyl-7-fluoro-3-hydroxynaphthalen-1-yl)-8-fluoro-2-(((2R,7aS)-2-fluorotetrahydro-1H-pyrrolizin-7a(5H)-yl)methoxy)pyrido[4,3-d]pyrimidin-4-yl)-2,6-diazaspiro[3.6]decan-2-yl)methanone], the concentration for half-maximal inhibition (IC50) against KRASG12D and against KRASwt was under 5 µM in each case.

For the origin of these results see patent US20240109918A1, “HETEROCYCLIC COMPOUNDS AND USES THEREOF” (Kumquat Biosciences Inc., priority 2022, published 2024).
